Read-outs that look alike come from different tables or passages of the source.
Tests used:
[1] = design: species or system SD rats; details: rat, in vivo
Text: The interscapular region (back of the neck near the ear) of 10-week-old SD rats (280-350 g) with sufficient subcutaneous adipose tissue was shaved and anesthetized.

[2] = tested on: skin, subcutaneous tissue of the interscapular region; assay: SD rat histological analysis (H&E, Masson's trichome staining); format: in vivo, SD rats; details: subcutaneous injection, 500 μL of 1%
Text: The interscapular region (back of the neck near the ear) of 10-week-old SD rats (280-350 g) with sufficient subcutaneous adipose tissue was shaved and anesthetized. […].
Then, tissues (skin, subcutaneous tissue) of the interscapular region were collected, fixed, and subjected to H&E staining and Masson's trichome staining. Tissue changes were investigated through microscopic observation.

[3] = tested on: 3T3-L1 preadipocytes; assay: Preadipocyte cytotoxicity (cell counting kit-8); details: treated for 4 hours
Experimental: 3T3-L1 preadipocytes were inoculated into a 96 well plate at 5×10^3 per well, grown in medium (high glucose DMEM, 10% bovine calf serum, 1% penicillin/streptomycin) for 16 hours. The drug was prepared to contain 0.04% and 0.08%, respectively, and then treated for 4 hours. After adding 10 μl of Dojingo CK04-11 cell counting kit-8 to each well according to the manual, reacting for 2 hours, the absorbance at 450 nm was measured with a spectrophotometer to compare preadipocyte cytotoxicity.

amount of DCA in the subcutaneous tissue [1]	amount of DCA in the subcutaneous tissue ([1]; sc)	tissue findings at section creation (Masson's trichome staining) [2]	Molecule	tissue damage (H&E staining) [2]	preadipocyte cytotoxicity (comparison between test materials) ([3]; 0.04%)	survival rate of preadipocytes ([3]; 0.08%)
increased over time	gradually decreased	hematoma and edema	C[C@H](CCC(=O)O)[C@H]1CC[C@H]2[C@@H]3CC[C@@H]4C[C@H](O)CC[C@]4(C)[C@H]3C[C@H](O)[C@]12C [deoxycholic acid]	severe tissue damage	–	–
–	–	–	Sodium deoxycholate [precursor of deoxycholic acid salt]	–	the same	24.6%
